For assay [1], the species on record is Rattus norvegicus. As to the kind of experiment: GnRH antagonistic dose of compound for 8 rats ovulation out of total 10 using anti-ovulatory assay. Type of assay: functional.
The species entered for assay [2] is Rattus norvegicus. Description: Compound was tested in vitro for its ability to inhibit histamine release from rat mast cells. Type of assay: functional. As to conditions: read-out: ED50 (the source's name).
The species named for assay [3] is Rattus norvegicus. Description: Compound was evaluated for time course of action on LH secretion in the castrated male rat at a time interval of 1 hr at 25 microg. Type of assay: functional.
For assay [4], the species on record is Rattus norvegicus. Description: Compound was evaluated for time course of action on LH secretion in the castrated male rat at a time interval of 19 hr at 25 microg. Type of assay: functional.
The species named for assay [5] is Rattus norvegicus. Description: Compound was evaluated for time course of action on LH secretion in the castrated male rat at a time interval of 43 hr at 25 microg. The assay is classed as functional.
For assay [6], the species on record is Rattus norvegicus. Description: Compound was evaluated for time course of action on LH secretion in the castrated male rat at a time interval of 49 h at 125 microg. The assay is classed as functional.
The species entered for assay [7] is Rattus norvegicus. Description: Compound was evaluated for time course of action on LH secretion in the castrated male rat at a time interval of 49 hr at 25 microg. The assay is classed as functional.
The species named for assay [8] is Rattus norvegicus. As to the kind of experiment: Compound was evaluated for time course of action on LH secretion in the castrated male rat at a time interval of 67 hr at 25 microg. The assay is classed as functional.
The species named for assay [9] is Rattus norvegicus. Description: Compound was evaluated for time course of action on LH secretion in the castrated male rat at a time interval of 73 hr at 25 microg. The assay is classed as functional.
Assay [10] is filed under the species Rattus norvegicus. Description: Compound was evaluated for time course of action on LH secretion in the castrated male rat at a time interval of 0 hr at 25 microg. Type of assay: functional.
The species named for assay [11] is Rattus norvegicus. Description: Compound was evaluated for time course of action on LH secretion in the castrated male rat at a time interval of 1 hr at 125 microg. Type of assay: functional.
The species entered for assay [12] is Rattus norvegicus. Description: Compound was evaluated for time course of action on LH secretion in the castrated male rat at a time interval of 43 hr at 125 microg. The assay is classed as functional.
Assay [13] is filed under the species Rattus norvegicus. As to the kind of experiment: Compound was evaluated for time course of action on LH secretion in the castrated male rat at a time interval of 67 hr at 125 microg. Type of assay: functional.
For assay [14], the species on record is Rattus norvegicus. Description: Compound was evaluated for time course of action on LH secretion in the castrated male rat at a time interval of 0 hr at 125 microg. The assay is classed as functional.
For assay [15], the species on record is Rattus norvegicus. Description: Compound was evaluated for time course of action on LH secretion in the castrated male rat at a time interval of 19 hr at 125 microg. Type of assay: functional.
The species entered for assay [16] is Rattus norvegicus. As to the kind of experiment: Compound was evaluated for time course of action on LH secretion in the castrated male rat at a time interval of 73 hr at 125 microg. Type of assay: functional.
Assay [17] is filed under the species Rattus norvegicus. Description: Dissociation constant was determined in rat pituitary cells. As to conditions: pituitary gland cell. The assay is classed as cell-based.
Assay [18] addresses T1, Gonadotropin-releasing hormone receptor (Rattus norvegicus) (UniProt P30969).
T1 sequence (whole entry): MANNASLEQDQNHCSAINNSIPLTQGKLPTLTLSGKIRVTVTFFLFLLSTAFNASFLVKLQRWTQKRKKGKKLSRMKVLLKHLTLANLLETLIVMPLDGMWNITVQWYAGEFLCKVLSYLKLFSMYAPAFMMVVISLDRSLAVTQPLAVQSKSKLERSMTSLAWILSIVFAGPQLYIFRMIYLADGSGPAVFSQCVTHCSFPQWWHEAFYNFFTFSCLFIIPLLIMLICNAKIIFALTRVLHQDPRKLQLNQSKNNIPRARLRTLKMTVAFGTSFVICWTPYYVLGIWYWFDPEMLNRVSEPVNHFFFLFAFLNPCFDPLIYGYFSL
Description: Inhibition of GnRH-mediated LH secretion by cultured pituitary cells. As to conditions: Pituitary gland cell. The assay is classed as functional, cell-based.

The species named for assay [19] is Rattus norvegicus. Description: GnRH antagonistic dose of compound for 9 rats ovulation out of total 20 using anti-ovulatory assay. The assay is classed as functional.
The species named for assay [20] is Rattus norvegicus. As to the kind of experiment: GnRH antagonistic dose of compound for 7 rats ovulation out of total 20 using anti-ovulatory assay. Type of assay: functional.
For assay [21], the species on record is Rattus norvegicus. Description: GnRH antagonistic dose of compound for 11 rats ovulation out of total 15 using anti-ovulatory assay. Type of assay: functional.

pKd: −log10 of the molar value. In brackets after ≈: the same amount, converted by molar mass.

The compound `CC(=O)N[C@H](Cc1ccc2ccccc2c1)C(=O)N[C@H](Cc1ccc(Cl)cc1)C(=O)N[C@H](Cc1cccnc1)C(=O)N[C@@H](CO)C(=O)N[C@@H](CCCN=C(N)N)C(=O)N[C@H](Cc1cn(Cc2ccccc2)cn1)C(=O)N[C@@H](CC(C)C)C(=O)N[C@@H](CCCN=C(N)N)C(=O)N1CCC[C@H]1C(=O)N[C@H](C)C(N)=O` showed an ED100 in the assay filed under Rattus norvegicus [1] of 0.5 µg/kg. In addition, the EC50 in the assay listed under Rattus norvegicus [2] was 4.4 µg/mL (≈ 2.94 µM).
As for `CC(=O)N1CCC[C@@H]1C(=O)N[C@H](Cc1ccc(F)cc1)C(=O)N[C@H](Cc1c[nH]c2ccccc12)C(=O)N[C@@H](CO)C(=O)N[C@@H](CCCN=C(N)N)C(=O)N[C@H](Cc1ccc2ccccc2c1)C(=O)N[C@@H](CC(C)C)C(=O)N[C@@H](CCCN=C(N)N)C(=O)N1CCC[C@H]1C(=O)NCC(N)=O`, the LH level in the assay filed under Rattus norvegicus [3] came to 5.68 ng/mL; in the assay listed under Rattus norvegicus [4], 2.78 ng/mL; in the assay listed under Rattus norvegicus [5], 4.38 ng/mL; in the assay filed under Rattus norvegicus [6], 2.5 ng/mL; in the assay filed under Rattus norvegicus [7], 5.46 ng/mL; in the assay listed under Rattus norvegicus [8], 8.23 ng/mL. The LH level turned out to be 9.15 ng/mL in the assay listed under Rattus norvegicus [9]; 10.25 ng/mL in the assay listed under Rattus norvegicus [10]; 6.17 ng/mL in the assay listed under Rattus norvegicus [11]; 2.63 ng/mL in the assay listed under Rattus norvegicus [12]; 2.74 ng/mL in the assay filed under Rattus norvegicus [13]; 12.47 ng/mL in the assay filed under Rattus norvegicus [14]. Further, the LH level in the assay listed under Rattus norvegicus [15] was 3 ng/mL; in the assay listed under Rattus norvegicus [16] it was 4.58 ng/mL.
`COc1ccc(C(=O)CC[C@@H](NC(=O)[C@H](CCCN=C(N)N)NC(=O)[C@H](CO)NC(=O)[C@@H](Cc2cccnc2)NC(=O)[C@@H](Cc2ccc(Cl)cc2)NC(=O)[C@@H](Cc2ccc3ccccc3c2)NC(C)=O)C(=O)N(C)[C@@H](CC(C)C)C(=O)N[C@@H](CCCN=C(N)N)C(=O)N2CCC[C@H]2C(=O)N[C@H](C)C(N)=O)cc1` yielded an ED100 in the assay listed under Rattus norvegicus [1] of 1 µg/kg. The EC50 in the assay filed under Rattus norvegicus [2] came out at 4.6 µg/mL (≈ 3.07 µM).
For `CC(=O)N1CCC[C@@H]1C(=O)N[C@H](Cc1ccc(F)cc1)C(=O)N[C@H](Cc1c[nH]c2ccccc12)C(=O)N[C@@H](CO)C(=O)N[C@@H](Cc1ccc(O)cc1)C(=O)N[C@H](Cc1c[nH]c2ccccc12)C(=O)N[C@@H](CC(C)C)C(=O)N[C@@H](CCCN=C(N)N)C(=O)N1CCC[C@H]1C(=O)NCC(=O)O`, the EC50 in the assay filed under Rattus norvegicus [2] is 39 µg/mL (≈ 28.5 µM).
For orientation: pKd means −log10 of the Kd, conventionally taken in molar units. Higher therefore signals a small Kd. As to `CC(=O)N[C@H](Cc1ccc2ccccc2c1)C(=O)N[C@H](Cc1ccc(Cl)cc1)C(=O)N[C@H](Cc1cccnc1)C(=O)N[C@@H](CO)C(=O)N[C@@H](CCCN=C(N)N)C(=O)N[C@H](Cc1cn(C=O)c2ccccc12)C(=O)N[C@@H](CC(C)C)C(=O)N[C@@H](CCCN=C(N)N)C(=O)N1CCC[C@H]1C(=O)N[C@H](C)C(=O)O`, in the assay filed under Rattus norvegicus [17], the negative-log Kd (pKd) was 9.32. This compound returned a Relative potency in [18] of 0.95. The compound further came in with an ED100 in the assay filed under Rattus norvegicus [19] of 0.5 µg/kg. Further, the EC50 in the assay filed under Rattus norvegicus [2] is 3.4 µg/mL (≈ 2.29 µM).
Consider `CC(=O)N[C@H](Cc1ccc2ccccc2c1)C(=O)N[C@H](Cc1ccc(Cl)cc1)C(=O)N[C@H](Cc1cccnc1)C(=O)N[C@@H](CO)C(=O)N[C@@H](CCCN=C(N)N)C(=O)N[C@H](Cc1c[nH]c2cc([N+](=O)[O-])ccc12)C(=O)N[C@@H](CC(C)C)C(=O)N[C@@H](CCCN=C(N)N)C(=O)N1CCC[C@H]1C(=O)N[C@H](C)C(=O)O`, for which, in the assay listed under Rattus norvegicus [17], the pKd is 9.20. This compound yielded a Relative potency in [18] of 1.16. For the same compound, the ED100 in the assay listed under Rattus norvegicus [20] stood at 0.5 µg/kg. Also, in the assay listed under Rattus norvegicus [2], the EC50 was determined as 2.7 µg/mL (≈ 1.8 µM).
The compound `CC(=O)N[C@H](Cc1ccc2ccccc2c1)C(=O)N[C@H](Cc1ccc(Cl)cc1)C(=O)N[C@H](Cc1cccnc1)C(=O)N[C@@H](CO)C(=O)N[C@@H](CCCN=C(N)N)C(=O)N[C@H](Cc1ccc(O)cc1)C(=O)N[C@@H](CC(C)C)C(=O)N[C@@H](CCCN=C(N)N)C(=O)N1CCC[C@H]1C(=O)N[C@H](C)C(N)=O` showed an ED100 in the assay filed under Rattus norvegicus [21] of 0.5 µg/kg. For the same compound, in the assay filed under Rattus norvegicus [2], the EC50 was determined as 3.7 µg/mL (≈ 2.59 µM).

The values are drawn from ChEMBL document CHEMBL1123223, “New effective gonadotropin releasing hormone antagonists with minimal potency for histamine release in vitro” (J Med Chem, 1986).
